Drawing on PubChem BioAssay (NCI), this text covers TGI and GI50 for 15 compounds.

Among the test systems are A498 renal; NCI-H226 lung; KM12 colon; HT29 colon; SK-MEL-5 melanoma; OVCAR-3 ovarian; IGROV1 ovarian; OVCAR-5 ovarian; DMS 114 small cell lung; CAKI-1 renal; KM20L2 colon.
Common to all, as to assay: NCI tumour cell line growth inhibition, 48 h

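Cultured in 96-well plates, cells were exposed to test compound for 48 hours across five concentrations. GI50 is the concentration that inhibits growth by half. TGI is the concentration that stops growth completely.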 Some results are limits rather than exact numbers.

As to `C#CCn1c(=O)c(C#N)c(O)c2cc3ccccc3nc21`, the TGI in the assay on A498 renal, in the assay on NCI-H226 lung, in the assay on KM12 colon, in the assay on HT29 colon, in the assay with SK-MEL-5 melanoma and in the assay on OVCAR-3 ovarian was above 100 µM each time. Further, the TGI in the assay on IGROV1 ovarian, in the assay with OVCAR-5 ovarian, in the assay on DMS 114 small cell lung and in the assay with CAKI-1 renal was above 100 µM in each case.
In the case of `CC1(Cl)CC2C(CC1Sc1nnnn1-c1ccccc1)C2(C)C` (stereo unspecified), the TGI in the assay with NCI-H226 lung, in the assay with KM12 colon, in the assay on HT29 colon, in the assay with SK-MEL-5 melanoma, with OVCAR-3 ovarian and in the assay on IGROV1 ovarian was above 100 µM each time. The TGI in the assay with OVCAR-5 ovarian, in the assay on DMS 114 small cell lung and with KM20L2 colon was above 100 µM throughout.
With `COc1cc2c(cc1OC)-c1c3c(cc4c1[C@@H](C2)N(C)CC4)OCO3`, the TGI amounted to 16.9 µM with A498 renal; 23 µM in the assay on NCI-H226 lung; 45.1 µM in the assay on KM12 colon; 28.8 µM with HT29 colon; 19.3 µM in the assay on SK-MEL-5 melanoma; 44.6 µM in the assay on OVCAR-3 ovarian. For the same compound, the TGI in the assay on IGROV1 ovarian worked out at 49.9 µM; with OVCAR-5 ovarian, 37.3 µM; in the assay on DMS 114 small cell lung, 24.8 µM; with CAKI-1 renal, 51.4 µM; with KM20L2 colon it was 31.9 µM.
Regarding `O=C1c2cccc3cccc(c23)C(=O)N1CCCNOCCONCCCN1C(=O)c2cccc3cccc(c23)C1=O`, the TGI in the assay on A498 renal, in the assay with NCI-H226 lung, in the assay with KM12 colon, in the assay with HT29 colon, in the assay with SK-MEL-5 melanoma and with OVCAR-3 ovarian was above 100 µM in each case. The TGI with IGROV1 ovarian, with OVCAR-5 ovarian and with CAKI-1 renal was above 100 µM throughout.
As to `C/C(O)=C/c1nc2ccc([N+](=O)[O-])cc2nc1/C=C(/C)O`, the TGI in the assay on A498 renal was 83.6 µM; with NCI-H226 lung, above 100 µM; in the assay with KM12 colon, above 100 µM; with HT29 colon, above 100 µM; in the assay with SK-MEL-5 melanoma, above 100 µM; with OVCAR-3 ovarian, above 100 µM. Moreover, the TGI with IGROV1 ovarian, in the assay with OVCAR-5 ovarian and in the assay on CAKI-1 renal was above 100 µM throughout.
As to `Cc1ccc(S(=O)(=O)c2c(O)c3ccccc3n(C)c2=O)cc1`, the TGI with A498 renal, with NCI-H226 lung, with KM12 colon, in the assay with HT29 colon, in the assay with SK-MEL-5 melanoma and in the assay with OVCAR-3 ovarian was above 100 µM each time. For the same compound, the TGI in the assay with IGROV1 ovarian, in the assay on OVCAR-5 ovarian and with CAKI-1 renal was above 100 µM throughout.
Turning to `C[n+]1c2ccccc2c(C(=O)Nc2ccc(S(=O)(=O)N=C(N)N)cc2)c2ccccc21`, the TGI in the assay on A498 renal, with NCI-H226 lung, in the assay on KM12 colon, with HT29 colon, in the assay on SK-MEL-5 melanoma and in the assay with OVCAR-3 ovarian was above 100 µM throughout. For the same compound, the TGI with IGROV1 ovarian, with OVCAR-5 ovarian and in the assay on CAKI-1 renal was above 100 µM throughout.
For the compound `NCCCCNCCCNC(=O)c1nc(-c2csc(CCN)n2)sc1Cl`, the TGI in the assay with A498 renal, in the assay with NCI-H226 lung, in the assay with KM12 colon, in the assay on HT29 colon, with SK-MEL-5 melanoma and in the assay on OVCAR-3 ovarian was above 100 µM each time. Also, the TGI in the assay on IGROV1 ovarian, in the assay with OVCAR-5 ovarian, with DMS 114 small cell lung, in the assay with CAKI-1 renal and in the assay on KM20L2 colon was above 100 µM throughout.
Turning to `O=c1[nH]c(Nc2cccc(Cl)c2)nc2nc[nH]c12`, the TGI with A498 renal, in the assay on NCI-H226 lung, in the assay on KM12 colon, in the assay with HT29 colon, with SK-MEL-5 melanoma and in the assay with OVCAR-3 ovarian was above 100 µM each time. The TGI with IGROV1 ovarian, with OVCAR-5 ovarian and with CAKI-1 renal was above 100 µM each time.
In the case of `COc1ccc(C(=O)N2c3ccccc3Sc3ccccc32)c(C(F)(F)F)c1`, the GI50 with A498 renal is 0.282 µM; in the assay with NCI-H226 lung, 1.39 µM; in the assay with KM12 colon, 0.413 µM; with HT29 colon, 0.362 µM; in the assay on SK-MEL-5 melanoma, 0.692 µM; with OVCAR-3 ovarian it was 0.332 µM. Also, the GI50 in the assay on IGROV1 ovarian is 2.2 µM; in the assay on OVCAR-5 ovarian, 1.61 µM; in the assay with CAKI-1 renal it was 0.692 µM. For the same compound, the TGI in the assay with A498 renal is 0.877 µM; with NCI-H226 lung, 83.8 µM; in the assay with KM12 colon, 34.4 µM; in the assay with HT29 colon, above 100 µM; with SK-MEL-5 melanoma it was 16.6 µM; in the assay on OVCAR-3 ovarian, 28.1 µM. The TGI in the assay with IGROV1 ovarian, with OVCAR-5 ovarian and with CAKI-1 renal was above 100 µM in each case.
Regarding `[N-]=[N+]=Nc1ccc(CNc2cc(=O)[nH]c(=O)[nH]2)cc1`, the TGI with A498 renal, with NCI-H226 lung, with KM12 colon, in the assay on HT29 colon, with SK-MEL-5 melanoma and in the assay on OVCAR-3 ovarian was above 100 µM in each case. In addition, the TGI with IGROV1 ovarian, in the assay on OVCAR-5 ovarian and with CAKI-1 renal was above 100 µM in each case.
As for `Cc1c2c(OCCCCN3CCN(c4ncccn4)CC3)nn(C)c(=O)c2c(C)n1-c1ccccc1`, the TGI in the assay on A498 renal was 30.6 µM; in the assay on NCI-H226 lung, 40.8 µM; in the assay on KM12 colon it was 43.1 µM; with HT29 colon, above 100 µM; with SK-MEL-5 melanoma it was 26.8 µM; in the assay on OVCAR-3 ovarian, 41.9 µM. Moreover, the figures for the TGI with IGROV1 ovarian, with OVCAR-5 ovarian and in the assay with CAKI-1 renal were 35 µM, 37.6 µM and 35.3 µM, respectively.
Regarding `CC(=O)Oc1ccc(C2COc3cc(OC(C)=O)c(OC(C)=O)cc3C2)cc1` (stereo unspecified), the TGI is 13.8 µM in the assay with A498 renal; 54.7 µM in the assay with NCI-H226 lung; 69.5 µM in the assay with KM12 colon; above 81.5 µM in the assay with HT29 colon; 6.63 µM in the assay on SK-MEL-5 melanoma; 25.2 µM in the assay on OVCAR-3 ovarian. The TGI with IGROV1 ovarian is 31.2 µM; in the assay with OVCAR-5 ovarian, above 97.1 µM; with DMS 114 small cell lung, 17.1 µM; in the assay on CAKI-1 renal it was 27.3 µM; in the assay with KM20L2 colon, 75.5 µM.
Consider `COc1cc(S(=O)(=O)Nc2ccc(-c3csc(N4C(=O)CSC4c4ccccc4)n3)cc2)ccc1Cl` (stereo unspecified), for which the TGI with A498 renal is 3.61 µM; in the assay on NCI-H226 lung, above 100 µM; in the assay on KM12 colon it was above 100 µM; in the assay on HT29 colon, above 100 µM; in the assay with SK-MEL-5 melanoma, above 100 µM; in the assay on OVCAR-3 ovarian it was above 100 µM. The TGI with IGROV1 ovarian, with OVCAR-5 ovarian and with CAKI-1 renal was above 100 µM in each case.
Turning to `Cc1ccc(C(=O)/C(C#N)=C/Nc2c(C)n(C)n(-c3ccccc3)c2=O)cc1`, the TGI in the assay on A498 renal, in the assay on NCI-H226 lung, in the assay with KM12 colon, in the assay on HT29 colon, in the assay with SK-MEL-5 melanoma and in the assay on OVCAR-3 ovarian was above 100 µM in each case. Moreover, the TGI with IGROV1 ovarian, in the assay on OVCAR-5 ovarian and in the assay on CAKI-1 renal was above 100 µM each time.
